Laboratory results published in the supplement of paper PMC6461962.

Experiments:
[1] = tested on: Pseudomonas fluorescens FW300-N2E2
In short: (§1)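 Cells were washed and added to 384-well plates at a final OD600 of 0.02 in 80 µL, with serial dilutions of inorganic ion salts or equimolar nitrilotriacetic acid complexes. Aerobic plates were shaken at 700 rpm at 30 °C, while anaerobic plates were not shaken, and OD600 was read at 24 h, or at 48 h for R2A strain comparisons. Readings were scaled between water controls and growth-blocking antibiotic controls, and wells with precipitate were excluded. The IC50 was obtained by fitting curves from at least two biological replicates with the drc R package.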

[2] = tested on: Rhodanobacter sp. FW104-10B01
In short: as §1

[3] = medium / electron acceptor: N2E2 Glucose/aerobic
[4] = medium / electron acceptor: N2E2 Glucose/aerobic 0.25xMinerals
[5] = medium / electron acceptor: N2E2 Glucose/aerobic (2)
[6] = medium / electron acceptor: N2E2 KB/aerobic
[7] = medium / electron acceptor: N2E2 LB/aerobic
[8] = medium / electron acceptor: N2E2 LB/aerobic (2)
[9] = medium / electron acceptor: N2E2 LB/nitrate
[10] = medium / electron acceptor: N2E2 Lactate/aerobic
[11] = medium / electron acceptor: N2E2 R2A/aerobic
[12] = medium / electron acceptor: 10B01 R2A/aerobic
[13] = medium / electron acceptor: 10B01 R2A/nitrate

O=[Si](O)O [Sodium metasilicate]
IC50 growth inhibition [1, 3]: < 0.244 mM | IC50 growth inhibition [1, 4]: < 0.244 mM | IC50 growth inhibition [1, 5]: < 0.244 mM | IC50 growth inhibition [1, 6]: < 0.244 mM | IC50 growth inhibition [1, 7]: < 0.244 mM | IC50 growth inhibition [1, 8]: < 0.244 mM | IC50 growth inhibition [1, 9]: < 0.244 mM | IC50 growth inhibition [1, 10]: < 0.244 mM | IC50 growth inhibition [1, 11]: < 0.244 mM | IC50 growth inhibition [2, 12]: < 0.244 mM | IC50 growth inhibition [2, 13]: < 0.244 mM

O=S([O-])[O-].[Na+].[Na+] [sodium sulfite]
IC50 growth inhibition [1, 3]: 0.261 mM | IC50 growth inhibition [1, 4]: 0.391 mM | IC50 growth inhibition [1, 5]: 0.45 mM | IC50 growth inhibition [1, 6]: < 0.244 mM | IC50 growth inhibition [1, 7]: 7.58 mM | IC50 growth inhibition [1, 8]: 1.7 mM | IC50 growth inhibition [1, 9]: 1.12 mM | IC50 growth inhibition [1, 10]: < 0.244 mM | IC50 growth inhibition [1, 11]: 31.7 mM | IC50 growth inhibition [2, 12]: > 500 mM | IC50 growth inhibition [2, 13]: 2 mM

[Cl][Fe]([Cl])[Cl] [Ferric chloride]
IC50 growth inhibition [1, 3]: > 50 mM | IC50 growth inhibition [1, 4]: > 50 mM | IC50 growth inhibition [1, 5]: 39.2 mM | IC50 growth inhibition [1, 6]: > 50 mM | IC50 growth inhibition [1, 7]: > 50 mM | IC50 growth inhibition [1, 8]: > 50 mM | IC50 growth inhibition [1, 9]: > 50 mM | IC50 growth inhibition [1, 10]: 41.7 mM | IC50 growth inhibition [1, 11]: 0.237 mM | IC50 growth inhibition [2, 12]: > 50 mM | IC50 growth inhibition [2, 13]: > 50 mM

[Br-].[Na+] [sodium bromide]
IC50 growth inhibition [1, 3]: 354 mM | IC50 growth inhibition [1, 4]: 405 mM | IC50 growth inhibition [1, 5]: 379 mM | IC50 growth inhibition [1, 6]: 354 mM | IC50 growth inhibition [1, 7]: 354 mM | IC50 growth inhibition [1, 8]: 354 mM | IC50 growth inhibition [1, 9]: 303 mM | IC50 growth inhibition [1, 10]: 378 mM | IC50 growth inhibition [1, 11]: 448 mM | IC50 growth inhibition [2, 12]: > 500 mM | IC50 growth inhibition [2, 13]: > 500 mM

[Na+].[Na+].[O]=[Mo](=[O])([O-])[O-] [Sodium molybdate]
IC50 growth inhibition [1, 3]: 20.3 mM | IC50 growth inhibition [1, 4]: 2.62 mM | IC50 growth inhibition [1, 5]: 3.39 mM | IC50 growth inhibition [1, 6]: 337 mM | IC50 growth inhibition [1, 7]: 369 mM | IC50 growth inhibition [1, 8]: 354 mM | IC50 growth inhibition [1, 9]: 214 mM | IC50 growth inhibition [1, 10]: 162 mM | IC50 growth inhibition [1, 11]: 231 mM | IC50 growth inhibition [2, 12]: 354 mM | IC50 growth inhibition [2, 13]: 262 mM

[Cl-].[K+] [Potassium Chloride]
IC50 growth inhibition [1, 3]: > 500 mM | IC50 growth inhibition [1, 4]: > 500 mM | IC50 growth inhibition [1, 5]: > 500 mM | IC50 growth inhibition [1, 6]: > 500 mM | IC50 growth inhibition [1, 7]: > 500 mM | IC50 growth inhibition [1, 8]: > 500 mM | IC50 growth inhibition [1, 9]: 458 mM | IC50 growth inhibition [1, 10]: > 500 mM | IC50 growth inhibition [1, 11]: > 500 mM | IC50 growth inhibition [2, 12]: > 500 mM | IC50 growth inhibition [2, 13]: 381 mM
